PubChem BioAssay AID1259407 (Chemical Carcinogenesis Research Information System (CCRIS), 2018)
Activity calls are given as the source filed them. The rule behind the calls is not given here.

Test system: CCRIS mutagenicity, Ames/micronucleus/aberration tests
Experiment: CCRIS mutagenicity studies
[1] = Test System: AMES SALMONELLA TYPHIMURIUM, Strain/Indicator: TA100, Metabolic Activation: NONE, Method: STANDARD PLATE
[2] = Test System: AMES SALMONELLA TYPHIMURIUM, Strain/Indicator: TA100, Metabolic Activation: S-9, Method: STANDARD PLATE
[3] = Test System: AMES SALMONELLA TYPHIMURIUM, Strain/Indicator: TA1537, Metabolic Activation: NONE, Method: STANDARD PLATE
[4] = Test System: AMES SALMONELLA TYPHIMURIUM, Strain/Indicator: TA102, Metabolic Activation: NONE, Method: STANDARD PLATE
[5] = Test System: AMES SALMONELLA TYPHIMURIUM, Strain/Indicator: TA98, Metabolic Activation: NONE, Method: PREINCUBATION
[6] = Test System: AMES SALMONELLA TYPHIMURIUM, Strain/Indicator: TA98, Metabolic Activation: NONE, Method: STANDARD PLATE

Compound: CCCCCCCC(=O)Nc1snc2ccccc12
- mutagenic call [1]: inactive; negative
- mutagenic call [2]: inactive; negative
- mutagenic call [3]: inactive; negative
- mutagenic call (Test System: AMES SALMONELLA TYPHIMURIUM, Strain/Indicator: TA1537, Metabolic Activation: S-9, Method: STANDARD PLATE): inactive; negative

Compound: O[C@@H]1C2=c3c(cc4cccc5ccc(c3c54)[C@H]1O)-c1ccccc12
- mutagenic call (Test System: AMES SALMONELLA TYPHIMURIUM, Strain/Indicator: TA100, Metabolic Activation: RAT, LIVER, S-9, AROCLOR 1254, Method: STANDARD PLATE): inactive; negative

Compound: O=C(O)C(Cl)CCl (centres undefined)
- mutagenic call [4]: inactive; negative
- mutagenic call (Test System: AMES SALMONELLA TYPHIMURIUM, Strain/Indicator: TA2638, Metabolic Activation: NONE, Method: STANDARD PLATE): inactive; negative
- mutagenic call (Test System: E. COLI, Strain/Indicator: WP2 (PKM101), Metabolic Activation: NONE, Method: STANDARD PLATE): inactive; negative
- mutagenic call (Test System: E. COLI, Strain/Indicator: WP2 UVRA (PKM101), Metabolic Activation: NONE, Method: STANDARD PLATE): inactive; negative

Compound: COS(=O)(=O)C(F)(F)F
- mutagenic call (Test System: AMES SALMONELLA TYPHIMURIUM, Strain/Indicator: TA100, Metabolic Activation: HAMSTER, LIVER, S-9, AROCLOR 1254 (10%), Method: PREINCUBATION): active; positive
- mutagenic call (Test System: MOUSE LYMPHOMA, Strain/Indicator: L5178Y (TK+/TK-), Metabolic Activation: NONE, Method: SUSPENSION/PLATE): active; positive. reevaluation of results: positive
- mutagenic call (Test System: MOUSE LYMPHOMA, Strain/Indicator: L5178Y (TK+/TK-), Metabolic Activation: RAT, LIVER, S-9, AROCLOR 1254, Method: SUSPENSION/PLATE): active; positive. reevaluation of results: positive

Compound: CC(C)CCC[C@@H](C)[C@H]1CC[C@H]2[C@@H]3C[C@@H]4N(N5C(=O)c6ccccc6C5=O)[C@@]45C[C@@H](Cl)CC[C@]5(C)[C@H]3CC[C@]12C (some centres undefined)
- mutagenic call (Test System: AMES SALMONELLA TYPHIMURIUM, Strain/Indicator: TA97A, Metabolic Activation: NONE, Method: STANDARD PLATE): inactive; negative
- mutagenic call [1]: inactive; negative
- mutagenic call [4]: inactive; negative
- mutagenic call (Test System: AMES SALMONELLA TYPHIMURIUM, Strain/Indicator: TA104, Metabolic Activation: NONE, Method: STANDARD PLATE): inactive; negative

Compound: c1ccc2c(c1)COC2
- mutagenic call [5]: active; positive

Compound: Nc1cccc2cnsc12
- mutagenic call [6]: active; positive

Compound: O=[N+]([O-])c1cccc(S(=O)(=O)OC[C@H]2CO2)c1
- mutagenic call [1]: active; positive

Compound: CCOC(=O)C(SP(=S)(OC)OC)c1ccccc1 (centres undefined)
- mutagenic call [6]: inactive; negative
- mutagenic call (Test System: AMES SALMONELLA TYPHIMURIUM, Strain/Indicator: TA98, Metabolic Activation: S-9, NADPH GENERATING SYSTEM, Method: STANDARD PLATE): inactive; negative
- mutagenic call [4]: inactive; negative
- mutagenic call (Test System: AMES SALMONELLA TYPHIMURIUM, Strain/Indicator: TA102, Metabolic Activation: S-9, NADPH GENERATING SYSTEM, Method: STANDARD PLATE): inactive; negative
- mutagenic call (Test System: AMES SALMONELLA TYPHIMURIUM, Strain/Indicator: TA1535, Metabolic Activation: NONE, Method: STANDARD PLATE): inactive; negative
- mutagenic call (Test System: AMES SALMONELLA TYPHIMURIUM, Strain/Indicator: TA1535, Metabolic Activation: S-9, NADPH GENERATING SYSTEM, Method: STANDARD PLATE): inactive; negative
- mutagenic call [3]: inactive; negative
- mutagenic call (Test System: AMES SALMONELLA TYPHIMURIUM, Strain/Indicator: TA1537, Metabolic Activation: S-9, NADPH GENERATING SYSTEM, Method: STANDARD PLATE): inactive; negative

Compound: Cn1cnc([N+](=O)[O-])c1Sc1ncnc2nc[nH]c12
- mutagenic call (Test System: AMES SALMONELLA TYPHIMURIUM, Strain/Indicator: TA98, Metabolic Activation: HAMSTER, LIVER, S-9, AROCLOR 1254 (30%), Method: PREINCUBATION): inactive; negative
- mutagenic call [5]: inactive; negative
- mutagenic call (Test System: AMES SALMONELLA TYPHIMURIUM, Strain/Indicator: TA98, Metabolic Activation: RAT, LIVER, S-9, AROCLOR 1254 (30%), Method: PREINCUBATION): inactive; negative
- mutagenic call (Test System: AMES SALMONELLA TYPHIMURIUM, Strain/Indicator: TA100, Metabolic Activation: HAMSTER, LIVER, S-9, AROCLOR 1254 (30%), Method: PREINCUBATION): active; positive
- mutagenic call (Test System: AMES SALMONELLA TYPHIMURIUM, Strain/Indicator: TA100, Metabolic Activation: NONE, Method: PREINCUBATION): active; positive
- mutagenic call (Test System: AMES SALMONELLA TYPHIMURIUM, Strain/Indicator: TA100, Metabolic Activation: RAT, LIVER, S-9, AROCLOR 1254 (30%), Method: PREINCUBATION): active; positive

Compound: Cc1ccc2cc3c4c(ccc3c3c2c1C[C@H]3O)[C@@H](O)[C@H](O)C=C4
- mutagenic call (Test System: CHINESE HAMSTER V-79, Strain/Indicator: V-79/8-AZAGUANINE, Metabolic Activation: RAT, LIVER, S-9, AROCLOR, Method: STANDARD PLATE): active; positive

Compound: CCc1c2ccccc2c(C)c2ccc3ccccc3c12
- mutagenic call (Test System: AMES SALMONELLA TYPHIMURIUM, Strain/Indicator: TA98, Method: STANDARD PLATE): inactive; negative
- mutagenic call (Test System: AMES SALMONELLA TYPHIMURIUM, Strain/Indicator: TA100, Metabolic Activation: RAT, LIVER, S-9, PHENOBARBITAL, Method: STANDARD PLATE): inactive; negative
- mutagenic call (Test System: AMES SALMONELLA TYPHIMURIUM, Strain/Indicator: TA100, Method: STANDARD PLATE): inactive; negative

Compound: COc1cc(Oc2ccc(Cl)cc2Cl)ccc1N
- mutagenic call (Test System: AMES SALMONELLA TYPHIMURIUM, Strain/Indicator: TA98, Metabolic Activation: S-9, Method: STANDARD PLATE): inactive; negative
- mutagenic call [2]: active; positive
- mutagenic call (Test System: AMES SALMONELLA TYPHIMURIUM, Strain/Indicator: YG1021, Metabolic Activation: S-9, Method: STANDARD PLATE): inactive; negative
- mutagenic call (Test System: AMES SALMONELLA TYPHIMURIUM, Strain/Indicator: YG1024, Metabolic Activation: S-9, Method: STANDARD PLATE): active; positive
- mutagenic call (Test System: AMES SALMONELLA TYPHIMURIUM, Strain/Indicator: YG1026, Metabolic Activation: S-9, Method: STANDARD PLATE): active; positive
- mutagenic call (Test System: AMES SALMONELLA TYPHIMURIUM, Strain/Indicator: YG1029, Metabolic Activation: S-9, Method: STANDARD PLATE): active; positive

Compound: CCc1c(O)c2c(c(O)c1OC)C(=O)C(OC)=C(OC)C2=O
- mutagenic call (Test System: AMES SALMONELLA TYPHIMURIUM, Strain/Indicator: TA98, Metabolic Activation: MICROSOMAL FRACTION, FULLY ACTIVATED, AND RAT LIVER S-9, Method: STANDARD PLATE): inactive; negative
- mutagenic call (Test System: AMES SALMONELLA TYPHIMURIUM, Strain/Indicator: TA98, Metabolic Activation: MICROSOMAL FRACTION, NON-FULLY ACTIVATED, Method: STANDARD PLATE): inactive; negative
- mutagenic call (Test System: AMES SALMONELLA TYPHIMURIUM, Strain/Indicator: TA100, Metabolic Activation: MICROSOMAL FRACTION, FULLY ACTIVATED, AND RAT LIVER S-9, Method: STANDARD PLATE): inactive; negative
- mutagenic call (Test System: AMES SALMONELLA TYPHIMURIUM, Strain/Indicator: TA100, Metabolic Activation: MICROSOMAL FRACTION, NON-FULLY ACTIVATED, Method: STANDARD PLATE): inactive; negative
- mutagenic call (Test System: AMES SALMONELLA TYPHIMURIUM, Strain/Indicator: TA1537, Metabolic Activation: MICROSOMAL FRACTION, FULLY ACTIVATED, AND RAT LIVER S-9, Method: STANDARD PLATE): inactive; negative
- mutagenic call (Test System: AMES SALMONELLA TYPHIMURIUM, Strain/Indicator: TA1537, Metabolic Activation: MICROSOMAL FRACTION, NON-FULLY ACTIVATED, Method: STANDARD PLATE): inactive; negative
